These are literature values, as cited in US12042566B2, “Formulations of homotaurines and salts thereof” (Confluence Pharmaceuticals, LLC, priority 2017, dated 2024).

The conditions of series [1]: humans, reportedly.
The conditions of series [2]: high solubility and low passive permeability.

`CC(=O)NCCCS(=O)(=O)O` [acamprosate, 3-(Acetylamino)propylsulfonic acid]: in series [1], the oral bioavailability result is given as “about 11%”. Besides, the “Biopharmaceutics Classification System (BCS) class” value in series [2] is given as “Class III”.
